From patent US5571701A, “Antibiotic, balhimycin, a process for its production and its use as pharmaceutical” (priority 1990, dated 1996)
Counter-ions that a name gives are not always drawn.

Legend:
[1] = Solubility (physico-chemical properties); type: physicochemical; conditions: as its trifluoroacetate salt; solvents in which soluble
P. vulaaris = assay: Minimum inhibitory concentration (MIC), antibacterial activity; type: cell-based
Ps. aeruaingu = assay: as above; type: cell-based

## CNC(CC(C)C)C(=O)NC1C(=O)NC(CC(N)=O)C(=O)NC2C(=O)NC3C(=O)NC(C(=O)NC(C(=O)O)c4cc(O)cc(O)c4-c4cc3ccc4O)C(OC3C[C@](C)(N)C(=O)C(C)O3)c3ccc(c(Cl)c3)Oc3cc2cc(c3OC2O[C@H](CO)C(O)[C@H](O)C2O)Oc2ccc(cc2Cl)C1O (stereo partly drawn) [Balhimycin trifluoroacetate, Balhimycin]
[1]
  Solubility: Water, dimethylsulfoxide
P. vulaaris
  MIC: > 100 µg/mL
Ps. aeruaingu
  MIC: > 100 µg/mL
